Experimental data reported in patent publication US11339163B2, “BRaf inhibitors and use thereof for treatment of cutaneous reactions” (Lutris Pharma Ltd., priority 2017, dated 2022).

Key:
BRAF (V600E) = BRAF (V600E) (Homo sapiens, UniProt P15056, V600E); assay: BRaf inhibitory activity assay; format: biochemical; settings: read-out: Compound IC50 BRAF (V600E)
Protocol: (§1) In this assay, the BRaf inhibitory activity of the compound of formula I, where
(§2) Reactions were carried out at 10 μM ATP.

wild-type BRaf = wild-type BRaf (Homo sapiens, UniProt P15056); assay: BRaf inhibitory activity assay; format: biochemical; settings: read-out: Compound IC50 BRAF
Protocol: as §1, §2

[1] = tested on: BALB/c-3T3 mouse fibroblasts; assay: 3T3 neutral red uptake phototoxicity assay; format: cell-based; settings: mouse, 24 h
Protocol: Therefore, the compounds of the present disclosure were screened for phototoxicity using the 3T3 natural red uptake assay.
In brief, BALB/c-3T3 mouse fibroblasts (originally obtained from ATCC) were seeded in 96-well plates at 12,000 cells per well, and grown for 24 hr. Test compounds and the positive control (chlorpromazine) were solubilized and serially diluted in DMSO. The negative control (histidine) was solubilized and diluted in HBSS. A dilution for all test articles was then made into HBSS at the final testing concentrations. At the start of the assay, the growth medium was removed from the plates and replaced with test agent dilution. Six replicates were used for each concentration. Cells were incubated in the dark with test article for 1 h, exposed to UVA light (2.5 J/cm2 over 18 min) and incubated 24 hrs. in the dark. A parallel non-irradiated plate was treated similarly, except it was stored in the dark, rather than illuminated.
For Neutral Red staining, medium was removed and fresh medium containing 25 μg/mL of Neutral Red (Sigma) was added. After three hours incubation, the cells were washed with PBS, and the cellular dye was solubilized with 1% acetic acid in 50% ethanol. Cellular Neutral Red was measured by its absorbance at 540 nm.
Data analysis: An IC50 (concentration that causes 50% reduction in viability) was calculated for each condition by linear interpolation.
A Photo-Irritation Factor (PIF) was calculated: PIF=IC50(−Irr)/IC50(+Irr)
PIF>5 indicates phototoxicity; 2<PIF<5 indicates probable phototoxicity; PIF<2 indicates no phototoxicity
In addition, the Mean Photo Effect (MPE) was calculated by comparison of the complete concentration-response curves. MPE is a weighted average of the difference in response of equivalent doses normalized by the shift in IC50.
MPE>0.15 indicates phototoxicity; 0.1<MPE<0.15 indicates probable phototoxicity; MPE<0.1 indicates no phototoxicity.

[2] = tested on: ERK phosphorylation in HEKa cells; assay: phospho-ERK in HEKa cells following EGFR inhibitors (Western blot); format: cell-based, human
Protocol: Human normal keratinocyte cells HEKa were purchased from Gibco Rhenium and seeded in 10 cm dishes (300,000 cells/dish) and incubated overnight at 37° C., 5% CO2. Next morning, the medium was replaced to a starvation medium for 2 hours and then the cells were treated for 2 additional hours with the test compounds. Post incubation, the cells were lyzed with RIPA and the protein extracts were analyzed by western blot for Phospho-ERK and total ERK. Untreated cells and 0.1% DMSO treated cells were used as negative control. HKGS growth factors was used as a positive control.
Western blot: 7.5 μg of total extract was loaded on 10% acrylamide gel. Following transfer, the membranes were blocked with TBST/5% skimmed milk and then incubated with Mouse anti Phospho-ERK (1:1000 in TBST 5% BSA, ON at 4° C.) and goat anti Mouse HRP (1:10,000 in TBST 5% BSA, 1-hour RT). The membranes were exposed using SuperSignal West Pico Chemiluminescent Substrate.
The HRP was then inactivated by incubating the membranes for 1 hour with 0.5% sodium azide Following washes and ECL exposure in order to ensure absence of signal, the membranes were re-blocked for 15 min with TBST/5% skimmed milk and then incubated with Rabbit anti total ERK2 (1:500 in TBST 5% BSA, ON at 4° C.), goat anti Rabbit HRP (1:5,000 in TBST 5% BSA, 1-hour RT) and finally exposed using the SuperSignal West Pico Chemiluminescent Substrate. The films were scanned and the signal were quantified using ImageJ software. The results were calculated as Phospho-ERK/total ERK.
HKGS was used as a positive control.

Escherichia coli = assay: In vitro Ames test, reverse mutation assay; format: cell-based
CDK1/cyclinB(h) = CDK1/cyclinB(h) (Homo sapiens, UniProt P06493); assay: KinaseProfiler kinase selectivity assay; format: biochemical
Protocol: (§3) All compounds were prepared to 50× final assay concentration in 100% DMSO. This working stock of the compound was added to the assay well as the first component in the reaction, followed by the remaining components. In the standard KinaseProfiler™ service, there is no pre-incubation step between the compound and the kinase prior to initiation of the reaction. The positive control wells contain all components of the reaction, except the compound of interest; however, DMSO (at a final concentration of 2%) is included in these wells to control for solvent effects. The blank wells contain all components of the reaction, with a reference inhibitor replacing the compound of interest. This abolishes kinase activity and establishes the base-line (0% kinase activity remaining).

DRAK1(h) = DRAK1(h) (Homo sapiens, UniProt Q9UEE5); assay: KinaseProfiler kinase selectivity assay; format: biochemical
Protocol: as §3

Fyn(h) = Fyn(h) (Homo sapiens, UniProt P06241); assay: KinaseProfiler kinase selectivity assay; format: biochemical
Sequence of Fyn(h) (P06241 whole entry): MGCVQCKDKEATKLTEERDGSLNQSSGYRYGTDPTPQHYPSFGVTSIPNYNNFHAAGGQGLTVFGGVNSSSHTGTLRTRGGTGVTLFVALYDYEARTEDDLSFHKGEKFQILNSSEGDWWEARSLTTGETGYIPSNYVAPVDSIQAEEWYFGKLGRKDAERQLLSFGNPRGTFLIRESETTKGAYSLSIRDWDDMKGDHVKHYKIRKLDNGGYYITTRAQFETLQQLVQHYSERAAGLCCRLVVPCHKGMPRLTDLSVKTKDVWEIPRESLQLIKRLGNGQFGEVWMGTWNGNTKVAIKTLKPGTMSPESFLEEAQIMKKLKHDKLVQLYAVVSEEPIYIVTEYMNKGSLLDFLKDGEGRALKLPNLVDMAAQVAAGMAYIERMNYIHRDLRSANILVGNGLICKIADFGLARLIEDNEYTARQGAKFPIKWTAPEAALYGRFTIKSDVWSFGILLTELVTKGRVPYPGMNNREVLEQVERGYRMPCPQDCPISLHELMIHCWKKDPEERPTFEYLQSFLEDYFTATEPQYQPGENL
Protocol: as §3

GSK3β(h) = GSK3β(h) (Homo sapiens, UniProt P49841); assay: KinaseProfiler kinase selectivity assay; format: biochemical
Sequence of GSK3β(h) (P49841 whole entry): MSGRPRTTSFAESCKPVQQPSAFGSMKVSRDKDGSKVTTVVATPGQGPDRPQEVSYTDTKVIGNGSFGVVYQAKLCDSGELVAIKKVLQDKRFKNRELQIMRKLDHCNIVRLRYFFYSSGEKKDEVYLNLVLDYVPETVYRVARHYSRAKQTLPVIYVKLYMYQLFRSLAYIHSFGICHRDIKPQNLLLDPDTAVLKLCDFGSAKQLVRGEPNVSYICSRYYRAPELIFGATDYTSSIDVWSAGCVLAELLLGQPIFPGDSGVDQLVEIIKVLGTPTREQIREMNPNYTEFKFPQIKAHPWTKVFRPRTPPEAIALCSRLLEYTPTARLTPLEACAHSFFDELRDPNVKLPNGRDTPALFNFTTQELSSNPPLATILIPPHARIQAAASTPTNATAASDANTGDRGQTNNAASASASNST
Protocol: as §3

IRAK4(h) = IRAK4(h) (Homo sapiens, UniProt Q9NWZ3); assay: KinaseProfiler kinase selectivity assay; format: biochemical
Sequence of IRAK4(h) (Q9NWZ3 whole entry): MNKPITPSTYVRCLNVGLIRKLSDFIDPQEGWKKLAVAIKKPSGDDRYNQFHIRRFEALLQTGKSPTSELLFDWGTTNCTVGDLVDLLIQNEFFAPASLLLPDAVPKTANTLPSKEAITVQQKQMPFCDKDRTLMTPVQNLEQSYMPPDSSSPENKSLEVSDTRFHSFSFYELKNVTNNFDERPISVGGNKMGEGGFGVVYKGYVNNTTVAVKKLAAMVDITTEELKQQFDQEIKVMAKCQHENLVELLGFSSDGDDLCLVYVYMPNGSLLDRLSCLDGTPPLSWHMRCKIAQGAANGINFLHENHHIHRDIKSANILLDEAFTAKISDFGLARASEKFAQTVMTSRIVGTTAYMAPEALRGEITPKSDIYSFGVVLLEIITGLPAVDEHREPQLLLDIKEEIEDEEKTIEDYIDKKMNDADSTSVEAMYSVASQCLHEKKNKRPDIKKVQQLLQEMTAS
Protocol: as §3

JAK2(h) = JAK2(h) (Homo sapiens, UniProt O60674); assay: KinaseProfiler kinase selectivity assay; format: biochemical
Sequence of JAK2(h) (O60674 whole entry): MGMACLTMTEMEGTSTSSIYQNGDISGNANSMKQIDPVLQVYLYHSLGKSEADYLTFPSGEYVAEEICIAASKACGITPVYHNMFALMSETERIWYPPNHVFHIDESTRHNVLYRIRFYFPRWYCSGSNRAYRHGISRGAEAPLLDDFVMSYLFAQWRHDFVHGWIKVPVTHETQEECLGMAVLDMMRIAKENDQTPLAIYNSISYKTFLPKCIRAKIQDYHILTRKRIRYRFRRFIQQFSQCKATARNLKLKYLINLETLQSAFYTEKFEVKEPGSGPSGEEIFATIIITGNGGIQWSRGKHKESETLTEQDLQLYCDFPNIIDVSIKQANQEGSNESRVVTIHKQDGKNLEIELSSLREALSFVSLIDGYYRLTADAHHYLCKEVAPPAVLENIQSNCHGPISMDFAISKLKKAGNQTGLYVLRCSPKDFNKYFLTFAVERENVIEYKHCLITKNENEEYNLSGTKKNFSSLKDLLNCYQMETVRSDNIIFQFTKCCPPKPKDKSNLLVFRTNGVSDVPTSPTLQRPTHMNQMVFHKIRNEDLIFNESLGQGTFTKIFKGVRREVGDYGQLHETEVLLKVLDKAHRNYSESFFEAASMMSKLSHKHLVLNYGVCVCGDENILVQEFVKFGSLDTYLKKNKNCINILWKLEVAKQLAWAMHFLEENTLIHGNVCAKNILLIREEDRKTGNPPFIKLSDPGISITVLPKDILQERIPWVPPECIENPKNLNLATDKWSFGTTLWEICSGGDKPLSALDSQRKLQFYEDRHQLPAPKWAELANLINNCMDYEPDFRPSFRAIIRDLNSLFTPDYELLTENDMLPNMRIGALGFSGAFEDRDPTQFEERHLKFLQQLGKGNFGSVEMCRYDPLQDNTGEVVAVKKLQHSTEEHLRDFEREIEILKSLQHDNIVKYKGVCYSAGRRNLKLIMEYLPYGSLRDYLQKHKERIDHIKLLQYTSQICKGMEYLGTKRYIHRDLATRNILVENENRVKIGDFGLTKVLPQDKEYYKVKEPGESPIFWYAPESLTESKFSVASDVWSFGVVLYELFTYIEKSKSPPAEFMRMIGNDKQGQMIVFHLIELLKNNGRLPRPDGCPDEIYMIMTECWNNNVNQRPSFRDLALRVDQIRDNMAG
Protocol: as §3

[3] = molecular target: PI3 Kinase (p110β/p85α)(h) (Homo sapiens, UniProt P42338); assay: KinaseProfiler kinase selectivity assay; format: biochemical
Sequence of PI3 Kinase (p110β/p85α)(h) (P42338 whole entry): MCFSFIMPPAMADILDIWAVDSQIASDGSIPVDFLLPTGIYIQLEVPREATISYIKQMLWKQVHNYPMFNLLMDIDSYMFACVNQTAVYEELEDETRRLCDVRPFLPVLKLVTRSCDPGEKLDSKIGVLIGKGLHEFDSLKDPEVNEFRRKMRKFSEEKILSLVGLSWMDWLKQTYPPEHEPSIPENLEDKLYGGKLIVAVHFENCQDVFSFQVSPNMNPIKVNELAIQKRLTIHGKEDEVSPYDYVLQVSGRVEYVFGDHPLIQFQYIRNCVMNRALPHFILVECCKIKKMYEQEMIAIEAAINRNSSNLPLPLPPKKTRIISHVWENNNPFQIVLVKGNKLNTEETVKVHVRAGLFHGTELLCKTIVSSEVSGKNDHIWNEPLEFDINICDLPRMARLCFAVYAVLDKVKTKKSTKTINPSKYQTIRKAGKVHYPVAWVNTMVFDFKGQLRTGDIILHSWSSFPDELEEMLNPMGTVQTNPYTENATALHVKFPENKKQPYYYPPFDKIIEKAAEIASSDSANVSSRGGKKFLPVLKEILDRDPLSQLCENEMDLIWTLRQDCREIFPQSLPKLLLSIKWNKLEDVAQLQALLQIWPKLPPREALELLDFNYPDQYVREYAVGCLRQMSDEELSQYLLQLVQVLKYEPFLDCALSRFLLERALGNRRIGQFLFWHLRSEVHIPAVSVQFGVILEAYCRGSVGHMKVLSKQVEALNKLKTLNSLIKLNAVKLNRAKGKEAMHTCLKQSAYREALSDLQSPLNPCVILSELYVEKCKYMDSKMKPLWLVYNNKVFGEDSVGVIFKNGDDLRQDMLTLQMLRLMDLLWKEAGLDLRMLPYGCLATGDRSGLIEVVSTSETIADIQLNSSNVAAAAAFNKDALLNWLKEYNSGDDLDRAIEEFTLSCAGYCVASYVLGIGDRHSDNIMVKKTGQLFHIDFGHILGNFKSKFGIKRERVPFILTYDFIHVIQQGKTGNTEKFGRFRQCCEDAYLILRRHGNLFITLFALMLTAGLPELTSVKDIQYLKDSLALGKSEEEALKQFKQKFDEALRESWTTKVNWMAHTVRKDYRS
Sequence of PI3 Kinase (p110β/p85α)(h) (P27986 whole entry partner): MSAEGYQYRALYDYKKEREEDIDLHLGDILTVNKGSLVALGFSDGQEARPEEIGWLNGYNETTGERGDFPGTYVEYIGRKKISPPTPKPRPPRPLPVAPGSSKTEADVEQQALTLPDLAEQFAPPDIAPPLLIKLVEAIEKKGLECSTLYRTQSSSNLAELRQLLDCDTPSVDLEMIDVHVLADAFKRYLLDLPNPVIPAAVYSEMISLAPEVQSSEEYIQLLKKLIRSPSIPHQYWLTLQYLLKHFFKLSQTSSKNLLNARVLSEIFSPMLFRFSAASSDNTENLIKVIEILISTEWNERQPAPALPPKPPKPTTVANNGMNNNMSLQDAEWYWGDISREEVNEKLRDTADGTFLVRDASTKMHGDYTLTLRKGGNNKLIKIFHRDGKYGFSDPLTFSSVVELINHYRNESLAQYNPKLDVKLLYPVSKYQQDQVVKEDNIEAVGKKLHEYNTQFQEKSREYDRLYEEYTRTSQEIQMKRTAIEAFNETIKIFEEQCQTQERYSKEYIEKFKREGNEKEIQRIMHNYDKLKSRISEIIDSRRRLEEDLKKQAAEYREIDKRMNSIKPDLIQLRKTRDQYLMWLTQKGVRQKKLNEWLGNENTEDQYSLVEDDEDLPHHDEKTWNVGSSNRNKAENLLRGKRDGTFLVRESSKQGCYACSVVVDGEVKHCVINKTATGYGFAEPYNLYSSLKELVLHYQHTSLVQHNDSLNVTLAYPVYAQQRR
Protocol: as §3

Plk3(h) = Plk3(h) (Homo sapiens, UniProt Q9H4B4); assay: KinaseProfiler kinase selectivity assay; format: biochemical
Sequence of Plk3(h) (Q9H4B4 whole entry): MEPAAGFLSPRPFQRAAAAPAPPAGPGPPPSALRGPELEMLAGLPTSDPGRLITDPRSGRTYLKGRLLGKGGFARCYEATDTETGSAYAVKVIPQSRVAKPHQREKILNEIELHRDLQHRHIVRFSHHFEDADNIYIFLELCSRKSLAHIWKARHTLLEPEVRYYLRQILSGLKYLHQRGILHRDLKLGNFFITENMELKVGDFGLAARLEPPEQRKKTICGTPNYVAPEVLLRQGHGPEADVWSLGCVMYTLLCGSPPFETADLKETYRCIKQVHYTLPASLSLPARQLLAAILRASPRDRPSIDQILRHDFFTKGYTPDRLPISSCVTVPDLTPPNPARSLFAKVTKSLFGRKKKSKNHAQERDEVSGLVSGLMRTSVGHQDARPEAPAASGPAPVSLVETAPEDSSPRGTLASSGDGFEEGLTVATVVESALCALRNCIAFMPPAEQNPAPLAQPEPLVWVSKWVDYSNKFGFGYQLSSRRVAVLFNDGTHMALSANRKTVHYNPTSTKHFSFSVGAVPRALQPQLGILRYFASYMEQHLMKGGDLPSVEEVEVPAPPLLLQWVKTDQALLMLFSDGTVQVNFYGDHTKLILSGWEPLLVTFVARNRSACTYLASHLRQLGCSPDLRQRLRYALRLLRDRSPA
Protocol: as §3

SPRK1(h) = SPRK1(h) (Homo sapiens, UniProt Q96SB4); assay: KinaseProfiler kinase selectivity assay; format: biochemical
Protocol: as §3

c-RAF(h) = c-RAF(h) (Homo sapiens, UniProt P04049); assay: KinaseProfiler kinase selectivity assay; format: biochemical
Protocol: as §3

GP = settings: in vivo

Cc1ccc2c(Nc3cccc(OC(F)(F)F)c3)nccc2c1Nc1ncccc1-c1ncnc2[nH]cnc12 [LUT014]
IC50 (BRAF (V600E)): 13.3 nM | IC50 (wild-type BRaf): 11.7 nM | phototoxicity (3T3 NRU), stated in words [1]: Lut014 is classified as non-phototoxic | increase of phospho-ERK compared to the DMSO treated cells [2]: 200-800% | phospho-ERK when added to cells treated with Erlotinib [2]: increased | phospho-ERK when added to cells treated with cetuximab [2]: increased | mutagenicity, Escherichia coli reverse mutation assay (Escherichia coli): not mutagenic | remaining activity at 0.01 µM (CDK1/cyclinB(h); Lut014 @ 0.01 μM): 113% | remaining activity at 1 µM (CDK1/cyclinB(h); Lut014 @ 1 μM): 102% | remaining activity at 0.01 µM (DRAK1(h); Lut014 @ 0.01 μM): 99% | remaining activity at 1 µM (DRAK1(h); Lut014 @ 1 μM): 117% | remaining activity at 0.01 µM (Fyn(h); Lut014 @ 0.01 μM): 103% | remaining activity at 1 µM (Fyn(h); Lut014 @ 1 μM): 95% | remaining activity at 0.01 µM (GSK3β(h); Lut014 @ 0.01 μM): 105% | remaining activity at 1 µM (GSK3β(h); Lut014 @ 1 μM): 98% | remaining activity at 0.01 µM (IRAK4(h); Lut014 @ 0.01 μM): 94% | remaining activity at 1 µM (IRAK4(h); Lut014 @ 1 μM): 109% | remaining activity at 0.01 µM (JAK2(h); Lut014 @ 0.01 μM): 126% | remaining activity at 1 µM (JAK2(h); Lut014 @ 1 μM): 118% | remaining activity at 0.01 µM ([3]; Lut014 @ 0.01 μM): 101% | remaining activity at 1 µM ([3]; Lut014 @ 1 μM): 95% | remaining activity at 0.01 µM (Plk3(h); Lut014 @ 0.01 μM): 85% | remaining activity at 1 µM (Plk3(h); Lut014 @ 1 μM): 87% | remaining activity at 0.01 µM (SPRK1(h); Lut014 @ 0.01 μM): 105% | remaining activity at 1 µM (SPRK1(h); Lut014 @ 1 μM): 100% | remaining activity at 0.01 µM (c-RAF(h); Lut014 @ 0.01 μM): 105% | remaining activity at 1 µM (c-RAF(h); Lut014 @ 1 μM): 30% | dermal sensitization (GP): The test article is not
